Results from US20240294478A1, “ANTI-CANCER COMPOUNDS AND METHODS OF USE” (YALE UNIVERSITY, priority 2021, published 2024).

How the values were obtained:
[1] = test system: BJ fibroblast cells (normal cells); experiment: Short-term cell viability, normal fibroblasts; format: cell-based, human; conditions: compared with TMZ
Experimental: FIG. 1B: Short-term viability assay curves for KL-50 in DLD1 MSH6-deficient cells pre-treated with 0.01% DMSO control (CTR) or 10 μM O^6BG (+O^6BG) for 1 h prior to KL-50 addition. […] Short-term viability assay curves for (FIG. 1E) KL-50 in HCT116 MLH1−/−cells or (FIG. 1F) HCT116 cells complemented with chromosome 3 carrying wildtype MLH1 (+Chr3) pre-treated with 0.01% DMSO control or 10 μM O^6BG (+O^6BG) for 1 h prior to KL-50 addition. […] For these figures, points, mean; error bars, SD; n>3 technical replicates.
(§1) Short-term Cell Viability Assay. Cells were seeded in 96-well plates at 1000 or 2000 cells/well and allowed to adhere at 23° C. for 60 min and then incubated overnight at 37° C. Cells were treated with indicated concentrations of compounds in triplicate for 4-6 days prior to fixation with 3.7% paraformaldehyde and nuclear staining with 1 μg/mL Hoechst 33342 dye. Cells were imaged on a Cytation 3 imaging reader (BioTek) and quantified using CellProfiler software. For in vitro short-term growth delay experiments, IC50 values were determined from the nonlinear regression equation, [inhibitor] vs normalized response with variable slope.

[2] = test system: linearized pUC19 plasmid DNA; experiment: In vitro DNA cross-linking assay; format: biochemical; conditions: 100 μM
Experimental: Plasmid Linearization Assay. To set up the linearization reactions, 20 units of EcoRI-HF (New England Biolabs) was mixed with 20 μg 2686 bp pUC19 vector DNA in CutSmart buffer (New England Biolabs), pH 7.9, in a total volume of 1000 μL for 30 min at 37° C. The CutSmart buffer contains 50 mM potassium acetate, 20 mM Tris acetate, 10 mM magnesium acetate, and 100 μg/mL BSA. The reacted DNA was then purified using PCR cleanup kit and quantified using the NanoDrop One (Thermo Fisher). The DNA was then stored at −20° C. before use in in vitro DNA cross-linking assays or melting temperature analysis.
In Vitro DNA Cross-linking Assays. Linearized pUC19 DNA, prepared as described above, was used for in vitro DNA cross-linking assays. For each condition, 200 ng of linearized pUC19 DNA (15.4 μM base pairs) was incubated with the indicated concentration of drug in 20 μL. Drug stock concentrations were made in DMSO such that each reaction contained a fixed 5% DMSO concentration. Reactions were conducted in 100 mM Tris buffer (pH 7.4). Cisplatin (Sigma) and DMSO vehicle were used as positive and negative controls, respectively. Reactions were conducted between 3-96 h at 37° C. The DNA was stored at −80° C. until electrophoretic analysis. For gel electrophoresis, DNA concentration was preadjusted to 10 ng/μL. […]

[3] = test system: DLD1 BRCA2+/− and BRCA2−/− cells; experiment: Short-term viability assay, DLD1 BRCA2 isogenic model +/- O6BG; format: cell-based, human
Experimental: FIGS. 8A-8K. (FIG. 8A) Change in percent cells with 1 micronuclei from baseline (DMSO control) after treatment as in FIGS. 5A and 5C. […] (FIG. 8B) Short-term viability assay curves for KL-50 in PD20 cells, deficient in FANCD2 (FANCD2−/−) or complemented with FANCD2 (+FANCD2). (FIG. 8C) Short-term viability assay curves for KL-50 in PEO4 (BRCA2+) and PEO1 (BRCA2−/−) cells pre-treated with 0.01% DMSO control or 10 μM O^6BG (+O^6BG) for 1 h prior to KL-50 addition. (FIG. 8D) Short-term viability assay curves for KL-50 in DLD1 BRCA2+/− and BRCA2−/−cells pre-treated with 0.01% DMSO control or 10 μM O^6BG (+O^6BG) for 1 h prior to KL-50 addition. For FIGS. 8B-8D, points, mean; error bars, SD; n=3 technical replicates. […] Change in percent cells with 1 micronuclei from baseline (DMSO control) after treatment with olaparib (10 μM) for 48 h in LN229 MGMT+/−, MMR+/−cells. […] Western blot analysis of FANCD2 ubiquitination in LN229 MGMT+/−, MMR+/−cells and PD20 FANCD2-deficient cells, complemented with empty vector (FANCD2+EV), wildtype FANCD2 (PD20+FD2) or ubiquitination-mutant FANCD2 (PD20+KR). The % FANCD2 ubiquitination (% FANCD2 Ub) is quantified as the background-corrected integrated band intensity of the upper band divided by the sum of the background-corrected integrated band intensities of the upper and lower bands. The fold change in % FANCD2 ubiquitination is presented for each cell line relative to DMSO-treated cells. Vinculin serves as loading control. For 8J-8K, points, mean; error bars, SD; n=3 technical replicates.
as §1, with “Cells were treated with indicated concentrations of compounds in triplicate for 4-6 days prior to fixation with 3.7% paraformaldehyde and nuclear staining with 1 μg/mL Hoechst 33342 dye.” left out

[4] = test system: PEO4 (BRCA2+) and PEO1 (BRCA2−/−) cells; experiment: Short-term viability assay, PEO1/PEO4 model +/- O6BG; format: cell-based, human; conditions: PE01/4 model
Experimental: FIGS. 8A-8K. (FIG. 8A) Change in percent cells with 1 micronuclei from baseline (DMSO control) after treatment as in FIGS. 5A and 5C. […] (FIG. 8B) Short-term viability assay curves for KL-50 in PD20 cells, deficient in FANCD2 (FANCD2−/−) or complemented with FANCD2 (+FANCD2). (FIG. 8C) Short-term viability assay curves for KL-50 in PEO4 (BRCA2+) and PEO1 (BRCA2−/−) cells pre-treated with 0.01% DMSO control or 10 μM O^6BG (+O^6BG) for 1 h prior to KL-50 addition. (FIG. 8D) Short-term viability assay curves for KL-50 in DLD1 BRCA2+/− and BRCA2−/−cells pre-treated with 0.01% DMSO control or 10 μM O^6BG (+O^6BG) for 1 h prior to KL-50 addition. For FIGS. 8B-8D, points, mean; error bars, SD; n=3 technical replicates. […] The % FANCD2 ubiquitination (% FANCD2 Ub) is quantified as the background-corrected integrated band intensity of the upper band divided by the sum of the background-corrected integrated band intensities of the upper and lower bands. […]
Short-term Cell Viability Assay. […] Cells were imaged on a Cytation 3 imaging reader (BioTek) and quantified using CellProfiler software. For in vitro short-term growth delay experiments, IC50 values were determined from the nonlinear regression equation, [inhibitor] vs normalized response with variable slope.

How did the “cytotoxicity in normal human fibroblast cells” value [1] turn out when `NC(=O)c1ncn2c(=O)n(CCF)nnc12` [KL-50] was run?
The value was “No increase in toxicity”.

What about the “ICLs in plasmid DNA” value [2] of the same molecule?
The value was “possessed ICLs, with delayed rates of formation”.

And the “therapeutic index (TI), ratio of IC50 values in MGMT+/BRCA2+ cells compared to MGMT−/BRCA2− cells” value ([3]; DLD1 isogenic model)?
The value was about 600 fold.

What about the “effect of BRCA2 loss on toxicity” value ([3]; two MGMT-proficient cell models, following MGMT depletion via O6BG) of the same molecule?
The value was “BRCA2 loss enhanced the toxicity”.

What about the “therapeutic index (TI)” value [4] of the same molecule?
The value was 62 fold.
